From patent US8741906B2 (priority 2011, dated 2014) come the findings set out here.

Experiment [1] addresses T1, human CB2 receptors (Homo sapiens, UniProt P34972).
T1 construct: expressed in transfected cells; host or cells: CHO cells
Kind of experiment: functional cAMP assay, human CB2. It is filed as cell-based. As to the method: (§1) CHO cells expressing human CB1 or CB2 receptors are seeded 17-24 hours prior to the experiment 50.000 cells per well in a black 96 well plate with flat clear bottom (Corning Costar #3904) in DMEM (Invitrogen No. 31331), 1×HT supplement, with 10% fetal calf serum and incubated at 5% CO2 and 37° C. in a humidified incubator. The growth medium was exchanged with Krebs Ringer Bicarbonate buffer with 1 mM IBMX and incubated at 30° C. for 30 min. Compounds were added to a final assay volume of 100 μl and incubated for 30 min at 30° C. Using the cAMP-Nano-TRF detection kit the assay (Roche Diagnostics) was stopped by the addition of 50 μl lysis reagent (Tris, NaCl, 1.5% Triton X100, 2.5% NP40, 10% NaN3) and 50 μl detection solutions (20 μM mAb Alexa700-cAMP 1:1, and 48 μM Ruthenium-2-AHA-cAMP) and shaken for 2 h at room temperature. The time-resolved energy transfer is measured by a TRF reader (Evotec Technologies GmbH), equipped with a ND:YAG laser as excitation source. The plate is measured twice with the excitation at 355 nm and at the emission with a delay of 100 ns and a gate of 100 ns, total exposure time 10 s at 730 (bandwidth 30 nm) or 645 nm (bandwidth 75 nm), respectively. The FRET signal is calculated as follows: FRET=T730-Alexa730-P(T645-B645) with P=Ru730-B730/Ru645-B645, where T730 is the test well measured at 730 nM, T645 is the test well measured at 645 nm, B730 and B645 are the buffer controls at 730 nm and 645 nm, respectively. cAMP content is determined from the function of a standard curve spanning from 10 μM to 0.13 nM cAMP.
(§2) EC50 values were determined using Activity Base analysis (ID Business Solution, Limited). The EC50 values for a wide range of cannabinoid agonists generated from this assay were in agreement with the values published in the scientific literature.
A general note: Changes in cAMP serve as a functional read-out for many G protein-coupled receptors.

In experiment [2] the target is T2, human CB1 receptors (Homo sapiens, UniProt P21554).
T2 construct: expressed in transfected cells; host or cells: CHO cells
T2 sequence (P21554 whole entry): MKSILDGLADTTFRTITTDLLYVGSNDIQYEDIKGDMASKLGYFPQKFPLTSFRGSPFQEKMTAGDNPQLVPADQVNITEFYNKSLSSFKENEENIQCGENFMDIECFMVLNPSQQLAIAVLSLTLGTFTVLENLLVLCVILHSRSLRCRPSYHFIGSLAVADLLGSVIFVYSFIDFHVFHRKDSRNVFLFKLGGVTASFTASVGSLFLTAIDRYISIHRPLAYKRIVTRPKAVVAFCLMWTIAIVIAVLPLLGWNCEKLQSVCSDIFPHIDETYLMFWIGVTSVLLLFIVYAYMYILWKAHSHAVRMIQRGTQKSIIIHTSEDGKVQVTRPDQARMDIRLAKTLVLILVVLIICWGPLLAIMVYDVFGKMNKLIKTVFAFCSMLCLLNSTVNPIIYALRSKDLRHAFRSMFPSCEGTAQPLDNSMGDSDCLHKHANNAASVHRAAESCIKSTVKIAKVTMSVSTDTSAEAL
Kind of experiment: functional cAMP assay, human CB1. It is filed as cell-based. How it is done:
as §1, §2

The mark [3] stands for this setting: CHO cells expressing human CB2, cAMP, read-out: human CB2 EC50.
Where [4] appears, read: CHO cells expressing human CB1, cAMP, read-out: human CB1 EC50.

Each structure is given as a SMILES string. pEC50: −log10 of the molar value. Like-named read-outs stand apart in the source and are kept apart here. Bounds are passed on as bounds.

T1 sequence (P34972 whole entry): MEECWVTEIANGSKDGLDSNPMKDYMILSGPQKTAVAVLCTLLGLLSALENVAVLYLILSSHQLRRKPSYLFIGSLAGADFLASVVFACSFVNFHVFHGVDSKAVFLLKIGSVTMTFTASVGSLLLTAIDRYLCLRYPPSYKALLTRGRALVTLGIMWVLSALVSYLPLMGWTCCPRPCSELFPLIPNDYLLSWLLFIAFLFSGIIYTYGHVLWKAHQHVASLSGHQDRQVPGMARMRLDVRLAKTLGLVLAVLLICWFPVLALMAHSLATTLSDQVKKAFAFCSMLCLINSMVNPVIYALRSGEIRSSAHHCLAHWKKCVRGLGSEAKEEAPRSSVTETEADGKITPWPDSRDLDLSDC

By pEC50 is commonly meant the EC50 on a negative log10 scale, so that one unit is a factor of ten. On to `Cc1noc(Cn2nnc3c(N4CCC(F)(F)C4)nc(C(C)(C)C)nc32)n1` [Example 102, 5-tert-Butyl-7-(3,3-difluoro-pyrrolidin-1-yl)-3-(3-methyl-[1,2,4]oxadiazol-5-ylmethyl)-3H-[1,2,3]triazolo[4,5-d]pyrimidine], for which the figures for the pEC50 in experiment [1] (setting [3]) and in experiment [2] (setting [4]) were 9.22 and under 5.00, respectively.

Regarding `CC(C)(C)c1nc(N2C[C@@H](F)C[C@H]2C#N)c2nnn(Cc3ccccc3Cl)c2n1` [Example 46, (2S,4S)-1-[5-tert-Butyl-3-(2-chloro-benzyl)-3H-[1,2,3]triazolo[4,5-d]pyrimidin-7-yl]-4-fluoro-pyrrolidine-2-carbonitrile], the pEC50 in experiment [1] (setting [3]) is 8.36; in experiment [2] (setting [4]), 5.64.

In the case of `Cc1nnc(Cn2nnc3c(N4CC[C@H](O)C4)nc(C(C)(C)C)nc32)o1` [Example 150, (S)-1-[5-tert-Butyl-3-(5-methyl-[1,3,4]oxadiazol-2-ylmethyl)-3H-[1,2,3]triazolo[4,5-d]pyrimidin-7-yl]-pyrrolidin-3-ol], the pEC50 was 7.44 in experiment [1] (setting [3]) and under 5.00 in experiment [2] (setting [4]).

As to `Cn1nnnc1Cn1nnc2c(N3CCC(F)(F)C3)nc(C(C)(C)C)nc21` [Example 131, 5-tert-Butyl-7-(3,3-difluoro-pyrrolidin-1-yl)-3-(1-methyl-1H-tetrazol-5-ylmethyl)-3H-[1,2,3]triazolo[4,5-d]pyrimidine], the results for the pEC50 in experiment [1] (setting [3]) and in experiment [2] (setting [4]) were 10.00 and under 5.00, respectively.

Consider `CC(C)(C)c1nc(N2CCC(F)(F)C2)c2nnn(Cc3ccccc3C(F)(F)F)c2n1` [Example 80, 5-tert-Butyl-7-(3,3-difluoro-pyrrolidin-1-yl)-3-(2-trifluoromethyl-benzyl)-3H-[1,2,3]triazolo[4,5-d]pyrimidine], for which the pEC50 is 9.52 in experiment [1] (setting [3]) and 7.16 in experiment [2] (setting [4]).

As for `CC(C)(C)c1nc(N2CCC(F)(F)C2)c2nnn(CC(=O)c3ccc(Cl)cc3)c2n1` [Example 116, 2-[5-tert-Butyl-7-(3,3-difluoro-pyrrolidin-1-yl)-[1,2,3]triazolo[4,5-d]pyrimidin-3-yl]-1-(4-chloro-phenyl)-ethanone], the pEC50 is 8.52 in experiment [1] (setting [3]) and under 5.00 in experiment [2] (setting [4]).

In the case of `CC(C)(C)c1nc(N2CCC(F)(F)C2)c2nnn(Cc3c(Cl)cccc3Cl)c2n1` [Example 70, 5-tert-Butyl-3-(2,6-dichloro-benzyl)-7-(3,3-difluoro-pyrrolidin-1-yl)-3H-[1,2,3]triazolo[4,5-d]pyrimidine], the pEC50 is 10.00 in experiment [1] (setting [3]) and 7.29 in experiment [2] (setting [4]).

Consider `CC(C)(C)c1nc(N2CCC(F)(F)C2)c2nnn([C@H]3CCOC3)c2n1` [Example 109, 5-tert-Butyl-7-(3,3-difluoro-pyrrolidin-1-yl)-3-(S)-tetrahydro-furan-3-yl-3H-[1,2,3]triazolo[4,5-d]pyrimidine], for which the negative logarithm of the EC50 (pEC50) was 9.30 in experiment [1] (setting [3]) and under 5.00 in experiment [2] (setting [4]).

Take `CC(C)(C)c1nc(N2CC[C@](C)(O)C2)c2nnn(Cc3nnnn3C3CC3)c2n1` [Example 230-a, (S)-1-(5-tert-butyl-3-((1-cyclopropyl-1H-tetrazol-5-yl)methyl)-3H-[1,2,3]triazolo[4,5-d]pyrimidin-7-yl)-3-methylpyrrolidin-3-ol]: the values for the pEC50 in experiment [1] (setting [3]) and in experiment [2] (setting [4]) were 8.57 and under 5.00, respectively.

With `CC(C)(C)c1nc(N2CC[C@@](C)(O)C2)c2nnn(Cc3ccccc3Cl)c2n1` [Example 221-b, (R)-1-(5-tert-butyl-3-(2-chlorobenzyl)-3H-[1,2,3]triazolo[4,5-d]pyrimidin-7-yl)-3-methylpyrrolidin-3-ol], the pEC50 was 8.15 in experiment [1] (setting [3]) and 6.07 in experiment [2] (setting [4]).

`CC(C)(C)c1nc(N2C[C@@H](O)C[C@@H]2CO)c2nnn(Cc3ccccc3Cl)c2n1` [Example 93, (3S,5R)-1-[5-tert-Butyl-3-(2-chloro-benzyl)-3H-[1,2,3]triazolo[4,5-d]pyrimidin-7-yl]-5-hydroxymethyl-pyrrolidin-3-ol]: the figures for the pEC50 in experiment [1] (setting [3]) and in experiment [2] (setting [4]) were 8.35 and under 5.00, respectively.

Consider `Cc1nc(Cn2nnc3c(N4CCC(F)(F)C4)nc(C(C)(C)C)nc32)no1` [Example 130, 5-tert-Butyl-7-(3,3-difluoro-pyrrolidin-1-yl)-3-(5-methyl-[1,2,4]oxadiazol-3-ylmethyl)-3H-[1,2,3]triazolo[4,5-d]pyrimidine], for which the pEC50 in experiment [1] (setting [3]) was 9.30; in experiment [2] (setting [4]), 6.25.

In the case of `CC(C)(C)c1nc(N2CC[C@](C)(O)C2)c2nnn(Cc3ccccc3S(C)(=O)=O)c2n1` [Example 223-a, (S)-1-(5-tert-butyl-3-(2-(methylsulfonyl)benzyl)-3H-[1,2,3]triazolo[4,5-d]pyrimidin-7-yl)-3-methylpyrrolidin-3-ol], the pEC50 in experiment [1] (setting [3]) was 9.40; in experiment [2] (setting [4]), 6.62.

As for `CCOc1nc(C(C)(C)C)nc2c1nnn2Cc1ccccc1Cl` [Example 208, 5-tert-Butyl-3-(2-chloro-benzyl)-7-ethoxy-3H-[1,2,3]triazolo[4,5-d]pyrimidine], the negative-log EC50 (pEC50) in experiment [1] (setting [3]) was 8.04; in experiment [2] (setting [4]), under 5.00.

As for `Cc1nnc(Cn2nnc3c(N4CC[C@H](O)[C@@H]4CO)nc(C(C)(C)C)nc32)n1C` [Example 170, (2S,3S)-1-[5-tert-Butyl-3-(4,5-dimethyl-4H-[1,2,4]triazol-3-ylmethyl)-3H-[1,2,3]triazolo[4,5-d]pyrimidin-7-yl]-2-hydroxymethyl-pyrrolidin-3-ol], the pEC50 is 6.71 in experiment [1] (setting [3]) and under 5.00 in experiment [2].

As to `CC(C)(C)c1nc(N2CCC(F)(F)C2)c2nnn(Cc3c(F)cccc3Cl)c2n1` [Example 72, 5-tert-Butyl-3-(2-chloro-6-fluoro-benzyl)-7-(3,3-difluoro-pyrrolidin-1-yl)-3H-[1,2,3]triazolo[4,5-d]pyrimidine], the values for the negative logarithm of the EC50 (pEC50) in experiment [1] (setting [3]) and in experiment [2] (setting [4]) were 10.00 and 7.39, respectively.

Take `CC(C)(C)c1nc(N2CCC(F)(F)C2)c2nnn(CC(=O)c3cccc(Cl)c3)c2n1` [Example 115, 2-[5-tert-Butyl-7-(3,3-difluoro-pyrrolidin-1-yl)-[1,2,3]triazolo[4,5-d]pyrimidin-3-yl]-1-(3-chloro-phenyl)-ethanone]: the pEC50 in experiment [1] (setting [3]) was 9.40; in experiment [2] (setting [4]), under 5.00.

`CC(C)(C)c1nc(N2CCC[C@H](O)C2)c2nnn(Cc3ccccc3Cl)c2n1` [Example 33, (S)-1-[5-tert-Butyl-3-(2-chloro-benzyl)-3H-[1,2,3]triazolo[4,5-d]pyrimidin-7-yl]-piperidin-3-ol]: the pEC50 in experiment [1] (setting [3]) is 8.60; in experiment [2] (setting [4]) it was 6.12.

`Cn1c(Cn2nnc3c(N4CCC(F)(F)C4)nc(C(C)(C)C)nc32)nnc1S(C)(=O)=O` [Example 133, 5-tert-Butyl-7-(3,3-difluoro-pyrrolidin-1-yl)-3-(5-methanesulfonyl-4-methyl-4H-[1,2,4]triazol-3-ylmethyl)-3H-[1,2,3]triazolo[4,5-d]pyrimidine]: the results for the negative-log EC50 (pEC50) in experiment [1] (setting [3]) and in experiment [2] (setting [4]) were 8.36 and under 5.00, respectively.

In the case of `Cc1cc(Cn2nnc3c(N4CCC(F)(F)C4)nc(C(C)(C)C)nc32)n(C)n1` [Example 144, 5-tert-Butyl-7-(3,3-difluoro-pyrrolidin-1-yl)-3-(2,5-dimethyl-2H-pyrazol-3-ylmethyl)-3H-[1,2,3]triazolo[4,5-d]pyrimidine], the pEC50 is 9.40 in experiment [1] (setting [3]) and 6.91 in experiment [2] (setting [4]).

In the case of `CNC1CCN(c2nc(C(C)(C)C)nc3c2nnn3Cc2ccccc2Cl)C1` (stereo not drawn) [Example 190, {1-[5-tert-Butyl-3-(2-chloro-benzyl)-3H-[1,2,3]triazolo[4,5-d]pyrimidin-7-yl]-pyrrolidin-3-yl}-methyl-amine], the pEC50 in experiment [1] (setting [3]) is 7.14; in experiment [2] (setting [4]), under 5.00.

On to `CC(C)(C)c1nc(N2CCCC2(C)C)c2nnn(Cc3ccccc3Cl)c2n1` [Example 29, 5-tert-Butyl-3-(2-chloro-benzyl)-7-(2,2-dimethyl-pyrrolidin-1-yl)-3H-[1,2,3]triazolo[4,5-d]pyrimidine], for which the pEC50 in experiment [1] (setting [3]) is 7.90; in experiment [2] (setting [4]), 5.79.

Take `CC(=O)N(C)C1CCN(c2nc(C(C)(C)C)nc3c2nnn3Cc2ccccc2Cl)C1` (stereo not drawn) [Example 194, N-{1-[5-tert-Butyl-3-(2-chloro-benzyl)-3H-[1,2,3]triazolo[4,5-d]pyrimidin-7-yl]-pyrrolidin-3-yl}-N-methyl-acetamide]: the pEC50 was 6.55 in experiment [1] (setting [3]) and under 5.00 in experiment [2].

As for `Cn1nnnc1Cn1nnc2c(N3CC[C@H](O)C3)nc(C(C)(C)C)nc21` [Example 151, (S)-1-[5-tert-Butyl-3-(1-methyl-1H-tetrazol-5-ylmethyl)-3H-[1,2,3]triazolo[4,5-d]pyrimidin-7-yl]-pyrrolidin-3-ol], the pEC50 in experiment [1] is 8.85; in experiment [2], under 5.00.
